What was measured:
Cell line [1] = assay: Inhibitory concentration against Human umbilical vein endothelial cells stimulated by VEGF was determined; format: functional, cell-based
[2] = target: Vascular endothelial growth factor receptor 2 (Homo sapiens, UniProt P35968); assay: Inhibitory concentration against Vascular endothelial growth factor receptor 2
Homo sapiens = species on record: Homo sapiens; details: Liver, Microsome
[3] = Glucuronidation in human liver microsomes was determined; format: ADME, Microsome
[4] = Area under the concentration time curve (0-4 hr) value in mouse after 50 mg/kg oral dosage; format: ADME, organism-based; set-up: time < 4 hr, dose 50 mg/kg, route oral; details: in vivo
[5] = Maximum plasma concentration in mouse after 50 mg/kg oral dosage; format: ADME, organism-based; set-up: dose 50 mg/kg, route oral
Cell line [6] = assay: Inhibitory concentration against Human umbilical vein endothelial cells stimulated by VEGF was determined;NA= not active; format: functional, cell-based

Sequence of Vascular endothelial growth factor receptor 2 (P35968 whole entry): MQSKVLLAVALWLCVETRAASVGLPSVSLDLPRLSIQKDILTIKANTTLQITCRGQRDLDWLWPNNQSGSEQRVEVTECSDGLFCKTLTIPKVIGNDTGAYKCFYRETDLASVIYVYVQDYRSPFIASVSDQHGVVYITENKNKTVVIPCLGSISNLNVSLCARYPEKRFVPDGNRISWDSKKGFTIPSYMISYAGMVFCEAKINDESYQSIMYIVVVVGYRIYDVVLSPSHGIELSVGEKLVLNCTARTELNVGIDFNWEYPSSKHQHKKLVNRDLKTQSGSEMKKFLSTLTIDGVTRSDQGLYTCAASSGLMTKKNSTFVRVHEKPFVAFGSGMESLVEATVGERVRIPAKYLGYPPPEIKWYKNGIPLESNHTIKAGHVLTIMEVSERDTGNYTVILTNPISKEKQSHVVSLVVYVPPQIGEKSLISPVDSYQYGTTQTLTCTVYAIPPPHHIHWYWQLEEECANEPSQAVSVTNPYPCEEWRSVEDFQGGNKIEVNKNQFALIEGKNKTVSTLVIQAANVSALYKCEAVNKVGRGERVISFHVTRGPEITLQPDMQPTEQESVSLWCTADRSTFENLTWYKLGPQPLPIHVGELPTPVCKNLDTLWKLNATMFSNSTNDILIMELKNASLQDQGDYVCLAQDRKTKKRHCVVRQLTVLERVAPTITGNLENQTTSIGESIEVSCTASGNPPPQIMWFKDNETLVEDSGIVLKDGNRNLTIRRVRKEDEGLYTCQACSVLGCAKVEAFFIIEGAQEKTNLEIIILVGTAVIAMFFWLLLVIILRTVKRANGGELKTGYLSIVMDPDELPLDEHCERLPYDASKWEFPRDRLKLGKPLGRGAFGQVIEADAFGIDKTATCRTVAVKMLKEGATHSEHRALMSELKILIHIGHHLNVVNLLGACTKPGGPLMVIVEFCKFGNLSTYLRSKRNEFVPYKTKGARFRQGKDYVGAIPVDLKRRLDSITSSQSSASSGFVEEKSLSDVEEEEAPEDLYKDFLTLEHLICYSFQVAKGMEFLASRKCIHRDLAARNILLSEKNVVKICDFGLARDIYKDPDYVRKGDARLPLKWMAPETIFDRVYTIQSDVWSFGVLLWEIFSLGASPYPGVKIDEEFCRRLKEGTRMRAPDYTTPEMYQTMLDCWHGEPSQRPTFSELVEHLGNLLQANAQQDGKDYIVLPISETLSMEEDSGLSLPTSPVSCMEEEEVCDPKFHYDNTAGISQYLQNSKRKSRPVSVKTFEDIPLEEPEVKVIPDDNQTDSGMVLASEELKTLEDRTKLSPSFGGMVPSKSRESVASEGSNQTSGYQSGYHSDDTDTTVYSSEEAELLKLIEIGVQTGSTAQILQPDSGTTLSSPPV

SMILES	IC50 (Cell line [1]) [nM]	IC50 [2] [nM]	Glucuronidation (Homo sapiens) [nmol/min/mg]	other results
Cc1ccc(Nc2ncnn3cc(OCCCN4CCCCC4)c(C(C)C)c23)cc1O	1	4	0.03	
COC(=O)c1cn2ncnc(Nc3cccc(O)c3)c2c1C		61		
COCCCNC(=O)c1cn2ncnc(Nc3ccc(C)c(O)c3)c2c1C		150	0.16	
COC(=O)c1cn2ncnc(Nc3ccc(C)c(O)c3)c2c1C		10		
Cc1ccc(Nc2ncnn3cc(C(=O)NCCCN4CCCC4)c(C)c23)cc1O	10	40		Glucuronidation [3]: 0.01 nmol/min/mg
Cc1ccc(Nc2ncnn3cc(NC(=O)NCCCN4CCCCC4)c(C(C)C)c23)cc1O	5	5	0.04	
COC(=O)c1cn2ncnc(Nc3ccc(Br)c(O)c3)c2c1C		33		
CCOC(=O)c1cn2ncnc(Nc3ccc(C)c(O)c3)c2c1OCC	40	64		
Cc1ccc(Nc2ncnn3cc(NC(=O)OCCCN4CCCCC4)c(C(C)C)c23)cc1O	1	5	0.08	
COC(=O)c1cn2ncnc(Nc3ccc(C(F)(F)F)c(O)c3)c2c1C		370		
CCOC(=O)c1cn2ncnc(Nc3ccc(C)c(O)c3)c2c1C(C)C	4	14		
CCCc1ccc(Nc2ncnn3cc(C(=O)OC)c(C)c23)cc1O		190		
COC(=O)c1cn2ncnc(Nc3ccc(C)c(O)c3)c2c1C(C)(C)C		310		IC50 (Cell line [6]): Not Active

More lines, in order of falling IC50 [2], values ahead:

IC50 (Cell line [1]) [nM]	IC50 [2] [nM]	SMILES	Glucuronidation (Homo sapiens) [nmol/min/mg]	other results
	380	COC(=O)c1cn2ncnc(Nc3ccc(C(C)C)c(O)c3)c2c1C		
35	90	CCCc1c(C(=O)NCCCN2CCCC2)cn2ncnc(Nc3ccc(C)c(O)c3)c12		
	55	CCc1ccc(Nc2ncnn3cc(C(=O)OC)c(C)c23)cc1O		
3	52	Cc1ccc(Nc2ncnn3cc(C(=O)NCCCN4CCOCC4)c(C)c23)cc1O	0.01	
20	30	Cc1ccc(Nc2ncnn3cc(C(=O)NCCCn4nccn4)c(C)c23)cc1O	0.21	
8	18	Cc1ccc(Nc2ncnn3cc(C(=O)NCCCN4CCCC4)c(C(C)C)c23)cc1O	0.02	AUC(0-t) at 4 h [4]: 0.267 µM·h; Cmax [5]: 166 nM
	7	Cc1ccc(Nc2ncnn3cc(NC(=O)OCCCn4nccn4)c(C(C)C)c23)cc1O	0.9	
6	3	CCCc1c(C(=O)OCC)cn2ncnc(Nc3ccc(C)c(O)c3)c12		

Source: ChEMBL document CHEMBL1142012, “Synthesis and SAR of 4-(3-hydroxyphenylamino)pyrrolo[2,1-f][1,2,4]triazine based VEGFR-2 kinase inhibitors” (Bioorg Med Chem Lett, 2005)
